Assay [1] has as its system histone H2A.Z Lysine 7 acetylation (TIP60 mediated) in U2OS cells. The assay can be described thus: H2A.Z Lysine 7 Acetylation Biomarker Assay (96 well, U2OS). The following applies: Table 7, H2A.Z K7ac, 24 hours incubation, serum free medium. Format: cell-based. As for the experimental part: To discover a global TIP60/KAT5 cellular biomarker useful for monitoring PD responses of TIP60 inhibition in vitro and in vivo, various histone modifications were assessed for TIP60 dependence through genetic (TIP60 siRNA and CRISPR/Cas9) or TIP60 pharmacological inhibition. This analysis clearly identified acetylation of the histone variant H2A.Z at Lysine 7 (H2A.ZK7ac) as a global histone mark which is TIP60-dependent in both human and mouse cells. To a lesser extent, TIP60 also acetylated lysine 4 and 11 of H2A.Z.
Compounds may be tested for their ability to inhibit the histone H2A.Z Lysine 7 acetylation biomarker (which is TIP60 mediated) in the following assay:
(§1) The cell line U2OS was seeded at a density of 9,000 cells per well in 96 well optical quality tissue culture plates in RPMI medium and 10% foetal bovine serum, and allowed to adhere for 24 hours under standard culture conditions (37 degree Celsius, 5% CO2). At the end of this period the cells were washed with serum free medium. Compound dilutions prepared in DMSO were added to the serum free medium, with negative control wells reserved for treatment with DMSO only and positive controls receiving a potent inhibitor compound (e.g. Example 146) at 20 μM concentration. After incubation for 24 hours, the cells were fixed with 3.7% formaldehyde in PBS for 20 minutes at room temperature, washed with phosphate buffer saline containing 0.1% Tween 20 and blocked with Odyssey blocking buffer (LI-COR, Lincoln, Nebr.) containing 0.1% TritonX100. Anti-H2A.Z K7ac specific antibody (Abcam) in Odyssey blocking buffer containing 0.1% Tween 20 was added and incubated for 14 hours at 4 degree Celsius. After washing, a secondary antibody labelled with Alexa647 dye (LifeTechnologies) and Hoechst 33342 (10 μM, SigmaAldrich) were added for 1 hour incubation. Plates were washed and read on a PerkinElmer Phenix high content imaging platform. Using a Columbus image analysis pipeline, individual nuclei were located by Hoechst 33342 stain and the acetylation level was calculated from the Alexa647-related intensity in the same area. The resulting mean intensity per cell was directly converted to percent inhibition relative to controls on the same plate and the data fitted against a four-parameter logistic model to determine the 50% inhibitory concentration (IC50).

Assay [2] addresses T1, MOZ-KAT6A (Homo sapiens, UniProt Q92794, A567V).
T1 construct: encoding amino acid residues 507 to 778 (Uniprot Q92794-1) of human KAT6A; made in house; host or cells: E. coli BL21 DE3
The experiment in a line: Acetyltransferase biochemical assay (AlphaScreen), KAT6A. The following applies: Table 2 (MOZ-KAT6A); 10 μM Acetyl coenzyme A, histone H3.1, 5 nM enzyme. (Bead proximity is the source of the signal in Alpha formats.)

The test system of assay [3] is histone H3K23 acetylation (KATE mediated) in U2OS cells. The assay can be described thus: Histone H3 Lysine 23 Acetylation Biomarker Assay (U2OS). The following applies: 96 well, 24 hours incubation. Format: cell-based. Summed up: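 U2OS cells were treated with compound for 24 h, then fixed and immunostained for H3K23ac with Hoechst nuclear counterstain. Per-nucleus Alexa647 intensity was quantified by high-content imaging and converted to % inhibition against DMSO and 10 μM reference-inhibitor controls. IC50 was derived from a four-parameter logistic fit.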

In assay [4] the target is T2, TIP60-KAT5 (Homo sapiens, UniProt Q92993).
T2 construct: encoding amino acid residues 2 to 461 (Uniprot Q92993-2) of human KAT5 isoform; made in house; host or cells: E. coli BL21 DE3
The experiment in a line: Revised Acetyltransferase Biochemical Assay, KAT5. The following applies: 10 nM KAT5, 1 μM AcCoA, 100 nM histone H4, 90 min.

Assay [5] addresses T3, HBO-KAT7 (Homo sapiens, UniProt O95251).
T3 construct: encoding amino acid residues 325 to 611 (Uniprot 095251-1) of human KAT7; made in house; host or cells: E. coli BL21 DE3 RIL
The experiment in a line: Acetyltransferase biochemical assay (AlphaScreen), KAT7. Particulars: Table 3 (HBO-KAT7); 0.4 μM Acetyl coenzyme A, histone H3.1, 40 nM enzyme.

The subject of assay [6] is histone H3K14 acetylation (HBO1 mediated) in U2OS cells. The experiment in a line: Histone H3 Lysine 14 Acetylation Biomarker Assay (96 well, U2OS). Format: cell-based. Particulars: Table 6, H3K14ac, 24 hours incubation, serum free medium. The protocol: Compounds may be tested for their ability to inhibit acetylation of the histone H3K14 marker (which is HBO1 mediated) in the following assay:
as §1, with “of 12,000” for “of 9,000”, “Example 36 in WO2016/198507)” for “Example 146)”, “at 10” for “at 20”, “TritonX100. Anti-H3K14ac” for “TritonX100. Anti-H2A.Z K7ac”, “antibody (Cell Signalling Technologies)” for “antibody (Abcam)”, “33342 (1 μg/mL,” for “33342 (10 μM,”

Assay [7] deals with T4, QKF-KAT6B (Homo sapiens, UniProt Q8WYB5).
T4 construct: purchased SignalChem K315-381BG
The assay can be described thus: Revised Acetyltransferase Biochemical Assay, KAT6B. The following applies: 8 nM KAT6B, 1 μM AcCoA, 100 nM histone H3.1, 90 min. The text has this: KAT6B was obtained from SignalChem, catalog ID: K315-381BG

Assay [8] concerns the target T1, MOZ-KAT6A. The assay can be described thus: Revised Acetyltransferase Biochemical Assay, KAT6A. Particulars: Table 8 (MOZ-KAT6A), 1 μM Acetyl coenzyme A.
For assay [9], the target named is T2, TIP60-KAT5. The experiment in a line: Acetyltransferase biochemical assay (AlphaScreen), KAT5. The following applies: Table 1 (TIP60-KAT5); 0.4 μM Acetyl coenzyme A, histone H4, 10 nM enzyme.
Assay [10] has as its target T3, HBO-KAT7. The assay can be described thus: Revised Acetyltransferase Biochemical Assay, KAT7. Particulars: Table 9 (HBO-KAT7), 1 μM Acetyl coenzyme A.
Assay [11] addresses T4, QKF-KAT6B. The experiment in a line: Acetyltransferase biochemical assay (AlphaScreen), KAT6B. The following applies: Table 5 (QKF-KAT6B); 0.4 μM Acetyl coenzyme A, histone H3.1, 8 nM enzyme.

Some results are limits rather than exact numbers.

Drawing on US20210380548A1, “Fused [1,2,4]Thiadiazine Derivatives Which Act as KAT Inhibitors of the MYST Family” (CTxT Pty Limited, priority 2017, published 2021), this text covers IC50 for four molecules.

T3 sequence (O95251 with tags, fused parts or gaps): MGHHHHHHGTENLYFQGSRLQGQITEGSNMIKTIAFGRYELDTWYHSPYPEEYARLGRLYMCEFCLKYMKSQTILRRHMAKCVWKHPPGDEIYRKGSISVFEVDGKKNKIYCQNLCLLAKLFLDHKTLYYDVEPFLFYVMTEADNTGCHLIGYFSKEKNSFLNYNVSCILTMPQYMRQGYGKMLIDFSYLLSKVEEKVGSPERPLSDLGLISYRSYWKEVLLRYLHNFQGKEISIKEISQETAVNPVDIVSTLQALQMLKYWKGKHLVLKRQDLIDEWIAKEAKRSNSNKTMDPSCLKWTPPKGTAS
T2 sequence (Q92993 2-461 isoform Q92993-2): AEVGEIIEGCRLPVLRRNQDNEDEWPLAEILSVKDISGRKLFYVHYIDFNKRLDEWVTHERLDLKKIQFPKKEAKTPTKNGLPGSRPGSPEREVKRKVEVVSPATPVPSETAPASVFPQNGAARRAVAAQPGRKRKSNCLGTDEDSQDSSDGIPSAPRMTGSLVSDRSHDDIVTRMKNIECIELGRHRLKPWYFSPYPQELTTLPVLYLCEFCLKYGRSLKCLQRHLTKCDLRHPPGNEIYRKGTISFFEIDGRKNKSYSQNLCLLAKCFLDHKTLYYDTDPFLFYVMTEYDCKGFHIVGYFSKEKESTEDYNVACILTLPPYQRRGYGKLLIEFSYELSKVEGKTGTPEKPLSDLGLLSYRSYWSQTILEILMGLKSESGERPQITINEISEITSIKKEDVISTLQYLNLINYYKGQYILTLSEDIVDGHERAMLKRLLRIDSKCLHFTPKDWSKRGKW
T1 sequence (Q92794 507-778 A567V limits assumed): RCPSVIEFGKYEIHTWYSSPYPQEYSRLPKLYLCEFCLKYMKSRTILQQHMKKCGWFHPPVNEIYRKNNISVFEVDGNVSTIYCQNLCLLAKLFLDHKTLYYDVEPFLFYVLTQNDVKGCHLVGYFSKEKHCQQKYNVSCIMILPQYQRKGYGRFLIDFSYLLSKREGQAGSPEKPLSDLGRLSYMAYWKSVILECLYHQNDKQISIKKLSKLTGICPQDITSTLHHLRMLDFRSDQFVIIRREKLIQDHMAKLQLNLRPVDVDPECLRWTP
T4 sequence (Q8WYB5 whole entry): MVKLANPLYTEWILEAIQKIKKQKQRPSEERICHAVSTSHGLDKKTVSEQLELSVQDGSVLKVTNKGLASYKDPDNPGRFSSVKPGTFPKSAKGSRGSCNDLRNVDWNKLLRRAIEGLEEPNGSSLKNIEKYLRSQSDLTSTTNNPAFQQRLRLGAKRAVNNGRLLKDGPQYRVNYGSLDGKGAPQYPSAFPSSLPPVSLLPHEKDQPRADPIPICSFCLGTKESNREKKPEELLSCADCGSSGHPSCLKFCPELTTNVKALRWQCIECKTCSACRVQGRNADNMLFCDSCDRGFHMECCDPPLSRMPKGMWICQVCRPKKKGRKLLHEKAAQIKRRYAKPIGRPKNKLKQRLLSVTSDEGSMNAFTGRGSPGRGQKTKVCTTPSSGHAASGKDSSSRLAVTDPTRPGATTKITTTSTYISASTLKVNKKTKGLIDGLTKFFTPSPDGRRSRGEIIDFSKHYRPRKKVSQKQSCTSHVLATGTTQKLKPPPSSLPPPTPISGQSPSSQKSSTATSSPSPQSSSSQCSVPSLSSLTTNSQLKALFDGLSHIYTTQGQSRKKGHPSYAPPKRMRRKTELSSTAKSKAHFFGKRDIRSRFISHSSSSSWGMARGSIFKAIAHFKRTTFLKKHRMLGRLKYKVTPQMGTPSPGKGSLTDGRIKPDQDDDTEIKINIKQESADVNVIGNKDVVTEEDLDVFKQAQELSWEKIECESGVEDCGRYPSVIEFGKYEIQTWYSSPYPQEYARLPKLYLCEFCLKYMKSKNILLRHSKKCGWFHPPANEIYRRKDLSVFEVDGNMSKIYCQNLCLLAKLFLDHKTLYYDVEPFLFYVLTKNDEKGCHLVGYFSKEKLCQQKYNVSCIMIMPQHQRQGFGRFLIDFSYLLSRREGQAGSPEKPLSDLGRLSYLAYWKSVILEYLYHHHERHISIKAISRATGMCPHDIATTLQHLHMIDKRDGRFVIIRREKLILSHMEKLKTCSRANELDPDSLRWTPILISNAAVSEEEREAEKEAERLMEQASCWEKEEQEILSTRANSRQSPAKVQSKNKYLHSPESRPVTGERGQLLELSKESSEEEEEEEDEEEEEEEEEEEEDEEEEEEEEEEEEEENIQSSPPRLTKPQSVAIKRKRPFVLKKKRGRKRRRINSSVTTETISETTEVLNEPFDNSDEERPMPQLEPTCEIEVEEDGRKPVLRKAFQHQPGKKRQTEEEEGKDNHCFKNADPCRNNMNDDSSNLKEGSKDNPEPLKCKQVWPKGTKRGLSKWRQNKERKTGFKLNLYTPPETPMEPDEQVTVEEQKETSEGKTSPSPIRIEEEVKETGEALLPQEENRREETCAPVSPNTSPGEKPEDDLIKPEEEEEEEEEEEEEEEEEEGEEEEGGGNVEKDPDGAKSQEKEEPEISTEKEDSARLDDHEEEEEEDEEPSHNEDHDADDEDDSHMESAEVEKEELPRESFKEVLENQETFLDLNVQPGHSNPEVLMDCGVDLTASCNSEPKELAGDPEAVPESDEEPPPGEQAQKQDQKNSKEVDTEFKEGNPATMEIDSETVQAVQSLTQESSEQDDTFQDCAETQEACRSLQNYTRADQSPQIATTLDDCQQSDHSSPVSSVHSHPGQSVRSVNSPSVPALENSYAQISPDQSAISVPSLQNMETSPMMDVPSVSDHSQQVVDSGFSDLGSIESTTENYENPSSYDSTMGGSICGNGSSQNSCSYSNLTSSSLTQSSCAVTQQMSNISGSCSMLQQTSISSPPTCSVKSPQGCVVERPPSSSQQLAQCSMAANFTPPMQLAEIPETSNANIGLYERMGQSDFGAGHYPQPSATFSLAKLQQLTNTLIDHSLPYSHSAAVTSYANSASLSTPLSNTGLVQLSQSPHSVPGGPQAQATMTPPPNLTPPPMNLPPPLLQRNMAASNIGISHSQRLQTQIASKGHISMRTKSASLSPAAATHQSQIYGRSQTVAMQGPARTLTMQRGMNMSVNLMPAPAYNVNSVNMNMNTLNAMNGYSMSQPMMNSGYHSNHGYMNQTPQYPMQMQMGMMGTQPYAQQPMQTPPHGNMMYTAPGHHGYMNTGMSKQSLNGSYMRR

One may read the IC50 as the point on the concentration scale where inhibition reaches its midpoint. A higher IC50 goes with weaker potency in that assay. Consider `O=C(NCC(c1ccccc1)c1ncco1)C1=Nc2ccc(I)cc2S(=O)(=O)N1` (single isomer, unassigned) [Example 147], for which the IC50 in assay [1] was found to be 1430 nM; in assay [2] it was 645 nM; in [3], 482 nM; in assay [4] it was 132 nM; in assay [5] it was 167 nM; in [6], 193 nM. The IC50 stood at 311 nM in assay [7], 29 nM in assay [8], 445 nM in [9] and 57 nM in assay [10].
Turning to `O=C(NCC(c1ccccc1)c1ncco1)C1=Nc2ccc(I)cc2S(=O)(=O)N1` (stereo not drawn) [Example 41, 7-iodo-N-(2-(oxazol-2-yl)-2-phenylethyl)-2H-benzo[e][1,2,4]thiadiazine-3-carboxamide 1,1-dioxide], the IC50 in [1] (Homo sapiens, 24 h) is 1000 nM; in [2] it was 17.9 nM; in assay [3] (Homo sapiens, U2OS, 24 h), 35 nM; in [4], 32 nM; in [5], 94.4 nM; in [6] (Homo sapiens, 24 h), 86.1 nM. In addition, the IC50 in [7] came to 28 nM; in [8], 5 nM; in assay [9], 61.3 nM; in assay [10], 59 nM.
`O=C(NCC(c1ccccc1)c1ncco1)C1=Nc2ccc(I)cc2S(=O)(=O)N1` (single isomer, unassigned) [Example 146, 7-iodo-N-(2-(oxazol-2-yl)-2-phenylethyl)-2H-benzo[e][1,2,4]thiadiazine-3-carboxamide 1,1-dioxide]: the 50% inhibitory concentration (IC50) came out at 447 nM in assay [1]; 25.9 nM in [2]; 16 nM in assay [3]; 13 nM in [4]; 160 nM in [5]; 429 nM in assay [6]. Besides, the IC50 in [7] was found to be 19 nM; in [8] it was 2 nM; in assay [9], 46.8 nM; in assay [10], 36 nM.
Take `Cn1cc(-c2ccc3c(c2)S(=O)(=O)NC(C(=O)NCC(c2ccccc2)c2ccccc2)=N3)cn1` [Example 18, N-(2,2-diphenylethyl)-7-(1-methyl-1H-pyrazol-4-yl)-2H-benzo[e][1,2,4]thiadiazine-3-carboxamide 1,1-dioxide]: the IC50 was 3120 nM in assay [2], 268 nM in assay [11] and greater than 125000 nM in assay [9].
